Results published in PMC11699130, “Design and synthesis of antiproliferative 2-oxoindolin-3-ylidenes incorporating urea function with potential VEGFR-2 inhibitory properties” (Scientific Reports, 2025).

Experiments:
Format in all cases: cell-based
[1] = tested on: MCF7 (breast) carcinoma cell line; test: MTT antiproliferation assay, MCF7; settings: for IC50: Homo sapiens, MTT, 72 h incubation, MCF7 (breast), read-out: IC50, μM ± SD, MCF7; for SI (safety/selectivity index), MCF7: in brackets after IC50, normal RPE1 relative to MCF7
From the text: (§1) Antiproliferation properties against normal RPE1 (human immortalized retinal pigment epithelial) cell line were also considered for safety/selectivity index (SI) determination of each respective agent synthesized (Table 1, Supplementary Figs. S61–S64). […]
(§2) All the biological studies conducted obey the standards and approved by the Research Ethics Committee, National Research Centre, Egypt (associated with project ID:
(§3) Antiproliferation properties
(§4) The synthesized compounds 12a‒j were screened for their antiproliferation properties against HCT116 (colon), MCF7 (breast) and PaCa2 (pancreatic) cancer cell lines by the standard mitochondrial dependent reduction of yellow MTT [3 -(4,5-dimethylthiazol-2- […]
(§5) considered as standard reference/drug. Cells were suspended in DMEM medium for MCF7, PaCa-2 and McCoy’s 5A for HCT116 in addition to 1% antibiotic–antimycotic mixture (10000 μg ml-1 potassium penicillin, 10000 μg ml-1 streptomycin sulfate and 25 μg ml-1 amphotericin B), 10% fetal bovine serum and 1% L-glutamine at 37 °C, under 5% CO2 and 95% humidity. Cells were seeded at concentration of 30000 cells per well in fresh complete growth medium in 96-well tissue culture microtiter plates for 24 h. Media […]
(§6) was aspirated, fresh complete medium was added and cells were incubated with different concentrations of the tested compound to give a final concentration of [50, 25, 12.5 and 6.25 μM “in addition to 3.125, 1.56 and 0.78 μM in case of high potent a nalogs”). 0.5% DMSO was used as a negative control. Triplicate wells were prepared for each individual dose. After 72 h of incubation, medium was aspirated, 40 μl MTT salt (2.5 mg ml -1) was added to each well and incubated for further 4 h at 37 °C. To stop the reaction and dissolve the formed crystals, 150 μl of 10% sodium dodecyl sulfate (SDS) in deionized water was added to each well and incubated overnight at 37 °C. The absorbance was then measured at 570 nm and a reference wavelength of 595 nm.
(§7) Data were collected as mean values for experiments performed in triplicates for each individual dose which had been measured by MTT assay. Control experiments did […]
(§8) The cell surviving fraction was calculated according to the following equation.
(§9) Surviving fraction = Opticaldensity(O.D.)oftreatedcells
(§10) The agents synthesized were also tested against RPE1 (normal human immortalized retinal pigment epithelial cell line) cell (in DMEM -F12 medium) to determine the toxicity/selectivity towards normal cells relative to the cancer cell lines […]
(§11) The IC50 (concentration required to produce 50% inhibition of cell growth compared to the control experiment) was determined using Graph-Pad PRISM version-5 software. Statistical calculations for determination of the mean and standard division (SD) values were determined by SPSS 16 so ftware. The observed anti-proliferative properties are presented in Table 1 ( Supplementary Figs. S61‒S64). […]

[2] = tested on: RPE1 (human immortalized retinal pigment epithelial) cell line; test: MTT assay on normal cells for safety/selectivity; settings: RPE-1, read-out: IC50, μM ± SD, RPE1
Description: as §1, §6, §7, §8, §9, §10, §11

[3] = tested on: PaCa2 (pancreatic) carcinoma cell line; test: MTT antiproliferation assay, PaCa2; settings: for IC50: PaCa-2, MTT, 72 h incubation, PaCa2 (pancreatic), read-out: IC50, μM ± SD, PaCa2; for SI (safety/selectivity index), PaCa2: in brackets after IC50, normal RPE1 relative to PaCa2
From the text: as §1, §2, §3, §4, §5, §6, §7, §8, §9, §10, §11

VEGFR-2 = target: T1, VEGFR-2 (Homo sapiens, UniProt P35968); test: VEGFR-2 inhibitory properties by western blotting; settings: for Relative quantification (RQ): VEGFR-2 western blot band, normalised to beta actin, at 10 μM, control RQ 3.290; for inhibition at 10 µM: western blotting, read-out: % Inhibition against VEGFR-2
T1 construct: lysed cells; endogenous in cells
T1 sequence (P35968 20-1356): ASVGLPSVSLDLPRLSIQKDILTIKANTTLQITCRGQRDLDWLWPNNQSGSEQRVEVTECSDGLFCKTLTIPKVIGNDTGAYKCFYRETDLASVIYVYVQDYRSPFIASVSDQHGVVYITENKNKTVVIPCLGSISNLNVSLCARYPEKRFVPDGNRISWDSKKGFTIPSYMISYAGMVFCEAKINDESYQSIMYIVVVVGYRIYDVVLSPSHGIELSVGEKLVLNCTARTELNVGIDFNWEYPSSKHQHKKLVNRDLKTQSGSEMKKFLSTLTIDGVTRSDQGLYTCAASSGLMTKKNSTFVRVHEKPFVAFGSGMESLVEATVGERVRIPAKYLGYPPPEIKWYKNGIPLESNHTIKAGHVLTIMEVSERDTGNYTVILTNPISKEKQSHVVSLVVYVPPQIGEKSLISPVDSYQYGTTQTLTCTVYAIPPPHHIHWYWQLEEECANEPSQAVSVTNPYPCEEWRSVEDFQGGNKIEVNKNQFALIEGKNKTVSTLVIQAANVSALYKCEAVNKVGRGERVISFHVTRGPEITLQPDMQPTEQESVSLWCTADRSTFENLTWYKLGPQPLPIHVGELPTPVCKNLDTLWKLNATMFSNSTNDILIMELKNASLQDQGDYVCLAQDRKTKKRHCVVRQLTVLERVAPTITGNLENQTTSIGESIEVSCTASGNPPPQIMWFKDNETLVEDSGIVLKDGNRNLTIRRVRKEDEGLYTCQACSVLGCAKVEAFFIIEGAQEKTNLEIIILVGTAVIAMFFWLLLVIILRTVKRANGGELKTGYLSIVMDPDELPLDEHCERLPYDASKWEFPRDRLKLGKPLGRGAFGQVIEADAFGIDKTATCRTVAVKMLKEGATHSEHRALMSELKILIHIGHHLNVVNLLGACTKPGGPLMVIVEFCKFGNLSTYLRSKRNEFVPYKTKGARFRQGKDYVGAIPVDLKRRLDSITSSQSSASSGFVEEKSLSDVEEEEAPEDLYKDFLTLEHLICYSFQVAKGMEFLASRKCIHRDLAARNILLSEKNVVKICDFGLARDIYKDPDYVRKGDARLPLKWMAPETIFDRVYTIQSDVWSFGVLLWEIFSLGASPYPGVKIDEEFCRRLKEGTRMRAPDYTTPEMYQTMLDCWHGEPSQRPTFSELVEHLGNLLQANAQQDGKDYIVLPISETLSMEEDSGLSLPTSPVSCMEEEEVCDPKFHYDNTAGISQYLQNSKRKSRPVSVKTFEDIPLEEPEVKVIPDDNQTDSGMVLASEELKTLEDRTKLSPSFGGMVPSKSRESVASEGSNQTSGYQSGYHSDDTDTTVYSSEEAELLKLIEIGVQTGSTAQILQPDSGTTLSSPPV
Description: VEGFR-2 inhibitory properties […]
standard/drug) was determined at 10 μM by the western blotting technique obeying the manufacturer’s instruction (Santa Cruz Biotechnology, Inc .).5
Protein extraction procedure
The ReadyPrepTM protein extraction kit (total protein) provided by Bio-Rad Inc.
(Catalog #163-2086) employed by the manufacturer, was added to each sample of the lysed cells. Bradford Protein Assay Kit (SK3041) for quantitative protein analysis was provided by Bio-basic Inc. (Markham Ontario L3R 8T4 Canada). A Bradford assay was performed according to manufacturer’s instructions to determine protein concentration in each sample. 20 μg protein concentration of each sample was then loaded with an equal volume of 2x Laemmli sample buffer containing 4% SDS, 10% 2-mercaptoehtanol, 20% glycerol, 0.004% bromophenol blue and 0.125 M Tris HCl. The pH was checked and brought to 6.8. Each previous mixture was boiled at 95°C for 5 min to ensure denaturation of protein before loading on polyacrylamide gel electrophoresis.
Protein separation by electrophoresis
Samples were separated on a polyacrylamide gel; the procedure was abbreviated as SDS-PAGE form Sodium Dodecyl Sulfate PolyAcrylamide Gel Electrophoresis, which is a standard technique for separating proteins according to their molecular weight.
Polyacrylamide gels were performed using TGX Stain-Free™ FastCast™ Acrylamide Kit (SDS-PAGE), which was provided by Bio-Rad Laboratories inc Cat # 161-0181. The SDS-PAGE TGX Stain-Free FastCast was prepared according to manufacturer’s […]
Protein blotting (transfer of proteins from the gel to the membrane)
The gel was assembled in transfer sandwich from below to above (filter paper, PVDF membrane, gel and filter paper). The sandwich was placed in the transfer tank with 1x transfer buffer, which is composed of 25 mM Tris and 190 mM glycine and 20% methanol. Then, the blot was run for 7 min . at 25 V to allow protein bands transfer from gel to membrane using BioRad Trans-Blot Turbo.
The membrane was blocked in tris -buffered saline with Tween 20 (TBST) buffer and 3% bovine serum albumin (BSA) at room temperature for 1 hr. The components of blocking […]
buffer were as follow; 20 mM Tris pH 7.5, 150 mM NaCl, 0.1% Tween 20 and 3% bovine serum albumin (BSA).
Incubation with the primary antibody
Primary antibody of VEGFR2 was purchased. Primary antibody was diluted in TBST according to manufactured instructions.

[4] = tested on: HCT116 (colon) carcinoma cell line; test: MTT antiproliferation assay, HCT116; settings: for IC50: Homo sapiens, HCT-116, MTT, 72 h incubation, HCT116 (colon), read-out: IC50, μM ± SD, HCT116; for SI (safety/selectivity index), HCT116: in brackets after IC50, normal RPE1 relative to HCT116
From the text: as §1, §2, §3, §4, §5, §6, §7, §8, §9, §10, §11

SMILES | IC50 [1] | SI (safety/selectivity index), MCF7 [1] | IC50 [2] | IC50 [3] | SI (safety/selectivity index), PaCa2 [3] | Relative quantification (RQ) (VEGFR-2) | inhibition at 10 µM (VEGFR-2) | IC50 [4] | SI (safety/selectivity index), HCT116 [4] | fold more potent than sunitinib ([3]; PaCa2, ratio of IC50 values)
O=C(Nc1ccccc1)Nc1cccc(C(=O)/C=C2/C(=O)Nc3ccc(F)cc32)c1 [Compound 12c, (E)-1-{3-[2-(5-Fluoro-2-oxoindolin-3-ylidene)acetyl]phenyl}-3-phenylurea] | 5.81 ± 0.629 µM | 3.669 | 21.31 ± 0.026 µM | 6.8 ± 0.514 µM | 3.133 | 0.472 | 85.6% | 14.4 ± 1.47 µM | 1.483 | –
O=C(Nc1ccccc1)Nc1ccc(C(=O)/C=C2/C(=O)Nc3ccc(Cl)cc32)cc1 [Compound 12f, (E)-1-{4-[2-(5-Chloro-2-oxoindolin-3-ylidene)acetyl]phenyl}-3-phenylurea] | 3.41 ± 0.761 µM | 3.144 | 10.7 ± 0.766 µM | 5.81 ± 0.63 µM | 1.845 | 0.517 | 84.3% | 6.58 ± 0.923 µM | 1.630 | –
O=C(Nc1ccccc1)Nc1ccc(C(=O)/C=C2/C(=O)Nc3ccc(F)cc32)cc1 [Compound 12d, (E)-1-{4-[2-(5-Fluoro-2-oxoindolin-3-ylidene)acetyl]phenyl}-3-phenylurea] | 2.9 ± 0.3 µM | 3.779 | 11 ± 0.429 µM | 4.96 ± 0.201 µM | 2.214 | 0.491 | 85.1% | 5.78 ± 0.593 µM | 1.898 | –
O=C(Nc1ccccc1)Nc1cccc(C(=O)/C=C2/C(=O)Nc3ccccc32)c1 [Compound 12a, (E)-1-{3-[2-(2-Oxoindolin-3-ylidene)acetyl]phenyl}-3-phenylurea] | 3.13 ± 0.395 µM | 4.355 | 13.6 ± 0.659 µM | 5.24 ± 0.502 µM | 2.606 | 0.746 | 77.3% | 13.3 ± 1.35 µM | 1.022 | –
COc1ccc2c(c1)/C(=C\C(=O)c1ccc(NC(=O)Nc3ccccc3)cc1)C(=O)N2 [Compound 12j, (E)-1-{4-[2-(5-Methoxy-2-oxoindolin-3-ylidene)acetyl]phenyl}-3-phenylurea] | 1.69 ± 0.067 µM | 5.090 | 8.6 ± 0.334 µM | 4.49 ± 0.785 µM | 1.917 | 0.678 | 79.4% | 6.15 ± 0.539 µM | 1.400 | –
Cc1ccc2c(c1)/C(=C\C(=O)c1ccc(NC(=O)Nc3ccccc3)cc1)C(=O)N2 [Compound 12h, (E)-1-{4-[2-(5-Methyl-2-oxoindolin-3-ylidene)acetyl]phenyl}-3-phenylurea] | 2.07 ± 0.081 µM | 4.107 | 8.5 ± 0.466 µM | 4 ± 0.369 µM | 2.128 | 0.475 | 85.6% | 5.58 ± 0.636 µM | 1.523 | about 3.34 fold
O=C(Nc1ccccc1)Nc1ccc(C(=O)/C=C2/C(=O)Nc3ccc(Br)cc32)cc1 [Compound 12g, (E)-1-{4-[2-(5-Bromo-2-oxoindolin-3-ylidene)acetyl]phenyl}-3-phenylurea] | 4.41 ± 0.544 µM | 3.101 | 13.7 ± 0.85 µM | 5.32 ± 0.228 µM | 2.572 | 0.500 | 84.8% | 6.29 ± 0.912 µM | 2.173 | –
COc1ccc2c(c1)/C(=C\C(=O)c1cccc(NC(=O)Nc3ccccc3)c1)C(=O)N2 [Compound 12i, (E)-1-{3-[2-(5-Methoxy-2-oxoindolin-3-ylidene)acetyl]phenyl}-3-phenylurea] | 8.96 ± 0.767 µM | 3.370 | 30.2 ± 0.948 µM | 7.64 ± 0.08 µM | 3.952 | 0.634 | 80.7% | 27.2 ± 2.95 µM | 1.111 | –
O=C(Nc1ccccc1)Nc1ccc(C(=O)/C=C2/C(=O)Nc3ccccc32)cc1 [Compound 12b, (E)-1-{4-[2-(2-Oxoindolin-3-ylidene)acetyl]phenyl}-3-phenylurea] | 2.08 ± 0.126 µM | 4.014 | 8.36 ± 0.374 µM | 4.09 ± 0.172 µM | 2.043 | 0.422 | 87.2% | 6.54 ± 0.452 µM | 1.277 | –
CCN(CC)CCNC(=O)c1c(C)[nH]c(/C=C2\C(=O)Nc3ccc(F)cc32)c1C [Sunitinib, reference compound] | 11.8 ± 0.937 µM | – | – | 13.34 ± 0.091 µM | – | – | – | 9.57 ± 0.949 µM | – | –
